The source of these data is ChEMBL document CHEMBL4138182, “Aminomethylation of heliomycin: Preparation and anticancer characterization of the first series of semi-synthetic derivatives” (Eur J Med Chem, 2018).

Activity calls are given as the source filed them. The calls are words filed in the database; no cut-off is given here.

One may read the IC50 as the concentration that gives 50% inhibition. High values mean weaker potency in that assay, low ones greater potency in that assay. As a reminder, the Kd is a measure of binding affinity in units of concentration. Low readings indicate tighter binding, high ones weaker binding.

Data set [1] has as its system HCT-116. The data set is described as follows: Antiproliferative activity against human HCT116 cells after 72 hrs by MTT assay. It counts as functional, cell-based. The settings on record: HCT-116, 72 h.
Data set [2] has as its system HCT-116. The data set is described as follows: Antiproliferative activity against p53 deficient human HCT116 cells after 72 hrs by MTT assay. In kind it is functional, cell-based. To be noted: HCT-116, 72 h. For orientation: Tetrazolium assays rely on reduction of a dye to a coloured formazan, in cell work by metabolically active cells.
The test system of another data set is K562. Kind of data set: Antiproliferative activity against human K562 cells after 72 hrs by MTT assay. In kind it is functional, cell-based. The settings on record: K562, 72 h.
Data set [3] can be described thus: Antiproliferative activity against human K562/4 cells after 72 hrs by MTT assay. It counts as functional, cell-based. The settings on record: K562/4, 72 h.
The test system of the next data set is L1210. The data set is described as follows: Antiproliferative activity against mouse L1210 cells after 72 hrs by MTT assay. In kind it is functional, cell-based. To be noted: L1210, 72 h.
The test system of a further data set is CCRF-CEM. Kind of data set: Antiproliferative activity against human CEM cells after 72 hrs by MTT assay. In kind it is functional, cell-based.
The subject of the next data set is HeLa. The data set is described as follows: Antiproliferative activity against human HeLa cells after 72 hrs by MTT assay. It counts as functional, cell-based.
The test system of a further data set is HMEC-1. Kind of data set: Antiproliferative activity against HMEC1 cells after 72 hrs by MTT assay. In kind it is cell-based. The settings on record: Homo sapiens, HMEC-1, 72 h.
Data set [4] in a line: Selectivity index, ratio of IC50 for HMEC1 cells to IC50 for human HCT116 cells. In kind it is toxicity. The settings on record: HMEC1 cells and HCT116 cells, read-out: Ratio IC50.
Data set [5] can be described thus: Selectivity index, ratio of IC50 for HMEC1 cells to IC50 for p53 deficient human HCT116 cells. It counts as toxicity. To be noted: HMEC1 cells and p53 deficient HCT116 cells, read-out: Ratio IC50.
Data set [6] can be described thus: Selectivity index, ratio of IC50 for HMEC1 cells to IC50 for human K562 cells. The settings on record: HMEC1 cells and K562 cells, read-out: Ratio IC50. In kind it is toxicity.
The nature of data set [7]: Selectivity index, ratio of IC50 for HMEC1 cells to IC50 for human K562/4 cells. To be noted: HMEC1 cells and K562/4 cells, read-out: Ratio IC50. In kind it is toxicity.
The nature of data set [8]: Selectivity index, ratio of IC50 for HMEC1 cells to IC50 for mouse L1210 cells. In kind it is toxicity. The settings on record: HMEC1 cells and L1210 cells, read-out: Ratio IC50.
A short description of data set [9]: Selectivity index, ratio of IC50 for HMEC1 cells to IC50 for human CEM cells. In kind it is toxicity. To be noted: HMEC1 cells and CEM cells, read-out: Ratio IC50.
Data set [10] is described as follows: Selectivity index, ratio of IC50 for HMEC1 cells to IC50 for human HeLa cells. It counts as toxicity. To be noted: HMEC1 cells and HeLa cells, read-out: Ratio IC50.
Data set [11] has as its target T1, DNA topoisomerase 1 (Homo sapiens) (UniProt P11387).
T1 sequence (whole entry): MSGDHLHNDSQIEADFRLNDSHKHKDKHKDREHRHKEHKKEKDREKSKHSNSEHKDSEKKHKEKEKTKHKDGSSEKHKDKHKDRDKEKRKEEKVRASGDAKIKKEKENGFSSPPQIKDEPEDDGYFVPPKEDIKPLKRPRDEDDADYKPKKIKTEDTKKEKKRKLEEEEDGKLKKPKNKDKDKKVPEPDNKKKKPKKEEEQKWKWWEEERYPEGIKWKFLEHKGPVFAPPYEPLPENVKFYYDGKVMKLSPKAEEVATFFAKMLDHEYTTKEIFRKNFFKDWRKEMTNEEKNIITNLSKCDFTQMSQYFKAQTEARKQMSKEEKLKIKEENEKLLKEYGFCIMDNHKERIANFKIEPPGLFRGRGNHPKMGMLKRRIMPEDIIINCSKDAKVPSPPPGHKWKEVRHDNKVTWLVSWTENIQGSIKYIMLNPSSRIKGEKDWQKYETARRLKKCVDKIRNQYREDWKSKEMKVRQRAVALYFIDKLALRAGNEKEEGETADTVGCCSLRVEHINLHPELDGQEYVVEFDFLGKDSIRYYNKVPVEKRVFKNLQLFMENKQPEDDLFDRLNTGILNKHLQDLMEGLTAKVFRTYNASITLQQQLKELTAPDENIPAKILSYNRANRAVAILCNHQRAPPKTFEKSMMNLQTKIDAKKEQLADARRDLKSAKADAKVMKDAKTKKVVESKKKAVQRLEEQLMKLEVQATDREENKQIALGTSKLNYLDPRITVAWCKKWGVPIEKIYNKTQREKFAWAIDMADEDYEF
The data set is described as follows: Inhibition of human DNA topoisomerase 1 assessed as decrease in relaxation of pBR322 at <= 20 uM after 30 to 40 mins by agarose gel electrophoresis.

The test system of data set [12] is Calf thymus DNA. The data set is described as follows: Binding affinity to calf thymus DNA by visible spectroscopic method. It counts as nucleic-acid assay. To be noted: Bos taurus.
The test system of data set [13] is Calf thymus DNA. The data set is described as follows: Binding affinity to calf thymus double stranded DNA at 10 uM by fluorescence spectrophotometer. It counts as nucleic-acid assay. The settings on record: Bos taurus.
Data set [14] has as its system T-24. Kind of data set: Growth inhibition of human T24 cells after 72 hrs by cell impedance method. In kind it is functional, cell-based. The settings on record: T-24, 72 h.
Data set [15] concerns the target T1, DNA topoisomerase 1 (Homo sapiens). Kind of data set: Inhibition of human DNA topoisomerase 1 assessed as decrease in relaxation of pBR322 at 20 uM after 30 to 40 mins by agarose gel electrophoresis.
Data set [16] deals with T-24. Kind of data set: Induction of apoptosis n human T24 cells at 1 uM after 24 hrs by annexin V-FITC/propidium iodide staining-based flow cytometric method. It counts as functional, cell-based. (In general: A flow cytometer gives signals particle by particle.)
Data set [17] concerns T-24. Kind of data set: Induction of apoptosis n human T24 cells assessed as upregulation of Bak levels at 0.5 to 1 uM after 18 hrs by Western blot method. In kind it is functional, cell-based. Background: In western blotting, separated proteins are transferred to a membrane and probed.
Data set [18] concerns T-24. Kind of data set: Induction of apoptosis n human T24 cells assessed as downregulation of Bcl-2 levels at 0.5 to 1 uM after 18 hrs by Western blot method. In kind it is functional, cell-based.
The subject of data set [19] is T-24. Kind of data set: Induction of apoptosis n human T24 cells assessed as PARP cleavage at 0.5 to 1 uM after 18 hrs by Western blot method. In kind it is functional, cell-based.
For data set [20], the system named is T-24. Kind of data set: Upregulation of total p53 levels in human T24 cells at 0.5 to 1 uM after 18 hrs by Western blot method. In kind it is cell-based. To be noted: t-24, 18 h.
For data set [21], the system named is T-24. The data set is described as follows: Induction of reactive oxygen species generation in human T24 cells at 1 uM after 30 mins by H2DCFDA dye-based flow cytometric method. In kind it is functional, cell-based.
Data set [22] has as its system Calf thymus DNA. The data set is described as follows: Binding affinity to calf thymus DNA. It counts as nucleic-acid assay. To be noted: Bos taurus.
Data set [23] concerns Calf thymus DNA. The data set is described as follows: Binding affinity to calf thymus double stranded DNA by Benesi-Hildebrand plot analysis. It counts as nucleic-acid assay, Bos taurus.
The target in data set [24] is T1, DNA topoisomerase 1 (Homo sapiens). The data set is described as follows: Inhibition of human DNA topoisomerase 1 assessed as decrease in relaxation of pBR322 at 5 to 20 uM after 30 to 40 mins by agarose gel electrophoresis.
Data set [25] relates to T-24. Kind of data set: Induction of apoptosis n human T24 cells assessed as upregulation of p53 levels at 0.5 to 1 uM after 18 hrs by Western blot method. It counts as functional, cell-based.
For data set [26], the system named is T-24. The data set is described as follows: Induction of apoptosis n human T24 cells assessed as caspase-3 cleavage at 0.5 to 1 uM after 18 hrs by Western blot method. In kind it is functional, cell-based.
The nature of data set [27]: Resistance index, ratio of IC50 for human K562/4 cells to IC50 for human K562 cells. It counts as functional.

In the case of `Cc1cc(O)c2c3c4c(cc(O)c13)C(C)(C)C(=O)c1c(O)c(CN(CC(=O)O)CC(=O)O)c(O)c(c1-4)C2=O`, the IC50 is 200 nM in the data set with HCT-116 [1]; 600 nM in the data set on HCT-116 [2]; 5500 nM in the data set with K562; 3100 nM in [3]; 31000 nM in the data set on L1210; 9700 nM in the data set on CCRF-CEM. Moreover, the IC50 with HeLa amounted to 6500 nM; with HMEC-1, 34300 nM. Further, the selectivity ratio in data set [4], in data set [5], in data set [6], in [7], in data set [8] and in [9] was 2 to 50 in each case. Besides, the selectivity ratio in [10] is 2 to 50. Besides, in data set [11], the “Topoisomerase 1 inhibition (active/inactive)” value is “Active”.

Regarding `COc1cccc2c1C(=O)c1c(O)c3c(c(O)c1C2=O)C[C@@](O)(C(=O)CO)C[C@@H]3O[C@H]1C[C@H](N)[C@H](O)[C@H](C)O1`, in the data set with Calf thymus DNA [12], the Kb was determined as 2 ×10⁶ /M.

As for `Cc1cc(O)c2c3c4c(cc(O)c13)C(C)(C)C(=O)c1c(O)cc(O)c(c1-4)C2=O` [HELIOMYCIN], the IC50 is 300 nM in the data set on HCT-116 [1]; 100 nM with HCT-116 [2]; 300 nM in the data set on K562; 400 nM in [3]; 700 nM with L1210; 500 nM with CCRF-CEM. The IC50 in the data set with HeLa is 100 nM; in the data set on HMEC-1, 500 nM; with T-24 [14] it was 26000 nM. Also, the result in the data set on Calf thymus DNA [13], in the data set with T-24 [16], in the data set on T-24 [17], in the data set on T-24 [18], in the data set with T-24 [19] and in the data set with T-24 [21] was inactive. In addition, the inhibition result in data set [15] is “inactive”. In addition, the Activity entry in the data set with T-24 [20] is given as “Toxic”. Also, the Kb in the data set with Calf thymus DNA [22] turned out to be 1.1 ×10⁴ /M.

Consider `Cc1cc(O)c2c3c4c(cc(O)c13)C(C)(C)C(=O)c1c(O)c(CN3CCC(N)CC3)c(O)c(c1-4)C2=O`, for which the IC50 stood at 1200 nM with HCT-116 [1]; 700 nM in the data set on HCT-116 [2]; 600 nM in the data set with K562; 4100 nM in data set [3]; 800 nM with L1210; 2300 nM with CCRF-CEM. Moreover, the IC50 worked out at 2600 nM in the data set on HeLa and 4400 nM in the data set on T-24 [14]. Moreover, the result in the data set on Calf thymus DNA [13], with T-24 [16], in the data set with T-24 [25], in the data set on T-24 [17], in the data set on T-24 [18] and in the data set with T-24 [26] was Active. In addition, the result with T-24 [19] and in the data set on T-24 [21] was Active. Also, in the data set on Calf thymus DNA [23], binding was characterised by a dissociation constant (Kd) of 8100 nM. Further, in the data set with Calf thymus DNA [23] (Bos taurus), the Kb was 1.2 ×10⁵ /M. In addition, the “Topoisomerase 1 inhibition (active/inactive)” value in data set [11] was “Active”. In data set [24], the inhibition entry is “Active”.

With `CCOC(=O)[C@@H]1CCCN1Cc1c(O)c2c3c(c1O)C(=O)C(C)(C)c1cc(O)c4c(C)cc(O)c(c4c1-3)C2=O`, the IC50 with HCT-116 [1] is 700 nM; with HCT-116 [2], 1000 nM; with K562 it was 2200 nM; in [3], 1500 nM; in the data set on L1210 it was 3500 nM; in the data set on CCRF-CEM, 1200 nM. Moreover, the half-inhibitory concentration (IC50) in the data set with HeLa came to 1300 nM; in the data set with HMEC-1, 5900 nM. For the same molecule, the selectivity ratio in data set [4], in data set [5], in data set [6], in [7], in data set [8] and in data set [9] was 2 to 50 in each case. The selectivity ratio in data set [10] was 2 to 50. For the same molecule, the “Topoisomerase 1 inhibition (active/inactive)” value in data set [11] is “Active”.

As for `Cc1cc(O)c2c3c4c(cc(O)c13)C(C)(C)C(=O)c1c(O)c(CNCCO)c(O)c(c1-4)C2=O`, the 50% inhibitory concentration (IC50) in the data set on HCT-116 [1] amounted to 500 nM; with HCT-116 [2] it was 1000 nM; with K562, 1300 nM; in [3] it was 19400 nM; in the data set on L1210 it was 3800 nM; in the data set on CCRF-CEM, 3300 nM. Besides, the IC50 in the data set on HeLa is 3600 nM. Besides, in [27], the “Ratio IC50” value is given as 20.
